Laboratory results taken from paper PMC9030223, “MBP-11901 Inhibits Tumor Growth of Hepatocellular Carcinoma through Multitargeted Inhibition of Receptor Tyrosine Kinases” (Cancers, 2022).

Assays:
Hep3B xenograft tumor = experiment: Hep3B subcutaneous xenograft; type: in vivo, mouse; conditions: once every 2 d, 12 administrations
Text: We further verified the effectiveness of MBP-11901 by constructing a mouse model in which Hep3B and Huh-7 were subcutaneously transplanted in addition to the human liver cancer cell line HepG2. In the case of Hep3B, the administration was initiated at a tumor volume of about 300 mm^3, once every 2 d, and the experiment was terminated after a total of 12 administrations (Figure S5). […] In contrast, tumors had completely disappeared in 1 out of 6 animals in the MBP-11901 group; 1 had only a trace of a tumor measuring approximately 30 mm^3, whereas the average tumor volume in the 6 animals was approximately 100 mm^3. […] Unlike Nexavar®, there were no side-effects relating to drug resistance or rapid tumor growth.

[1] = Pharmacokinetics in mice (data not shown); type: in vivo
KIT = molecular target: T1, KIT (Homo sapiens, UniProt P10721); experiment: KdELECT binding constant; conditions: mean ± S.D. (n = 2)
T1 construct: purchased Eurofins DiscoverX Corporation
T1 sequence (P10721 26-976): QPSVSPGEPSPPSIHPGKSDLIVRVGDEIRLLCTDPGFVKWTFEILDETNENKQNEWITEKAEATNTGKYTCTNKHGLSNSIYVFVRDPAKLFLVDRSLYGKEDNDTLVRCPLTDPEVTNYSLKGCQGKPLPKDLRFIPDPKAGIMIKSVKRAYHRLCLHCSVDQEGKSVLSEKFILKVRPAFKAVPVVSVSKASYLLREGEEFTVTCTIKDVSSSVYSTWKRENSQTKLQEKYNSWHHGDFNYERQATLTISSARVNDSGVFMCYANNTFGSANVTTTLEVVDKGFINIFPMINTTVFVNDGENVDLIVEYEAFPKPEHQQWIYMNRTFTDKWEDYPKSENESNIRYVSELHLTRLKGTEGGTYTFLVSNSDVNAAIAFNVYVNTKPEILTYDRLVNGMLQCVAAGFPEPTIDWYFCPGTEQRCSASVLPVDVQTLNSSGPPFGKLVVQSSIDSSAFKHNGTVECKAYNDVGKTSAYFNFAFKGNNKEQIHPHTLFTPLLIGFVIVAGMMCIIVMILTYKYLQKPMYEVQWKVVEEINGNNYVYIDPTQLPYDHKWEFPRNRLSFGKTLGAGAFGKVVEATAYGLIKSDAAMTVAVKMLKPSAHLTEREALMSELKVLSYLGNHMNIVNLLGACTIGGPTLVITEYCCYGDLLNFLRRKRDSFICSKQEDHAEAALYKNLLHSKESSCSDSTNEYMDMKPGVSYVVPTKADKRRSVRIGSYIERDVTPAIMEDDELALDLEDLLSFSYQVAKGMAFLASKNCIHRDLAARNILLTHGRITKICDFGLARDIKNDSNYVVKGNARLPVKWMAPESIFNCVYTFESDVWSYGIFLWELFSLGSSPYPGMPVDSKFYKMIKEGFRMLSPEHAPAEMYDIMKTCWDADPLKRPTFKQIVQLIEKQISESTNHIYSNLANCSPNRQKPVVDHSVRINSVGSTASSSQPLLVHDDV
Procedure: (§1) The profiling of MBP-11901 against a panel of 468 kinases was performed by DiscoverX using KINOMEscan technology, an active-site-dependent competition-binding assay (Eurofins DiscoverX Corporation, San Diego, CA, USA). Binding constants (Kd) were calculated by DiscoverX using KdELECT technology, a widely used assay for comparing selectivity across the kinome. The DiscoverX platform reports the thermodynamic Kd to facilitate direct comparison of inhibitor affinity across the kinome, independent of ATP concentration.

EGFR = molecular target: T2, EGFR (Homo sapiens, UniProt P00533); experiment: KdELECT binding constant
T2 construct: purchased Eurofins DiscoverX Corporation
T2 sequence (P00533 25-1210): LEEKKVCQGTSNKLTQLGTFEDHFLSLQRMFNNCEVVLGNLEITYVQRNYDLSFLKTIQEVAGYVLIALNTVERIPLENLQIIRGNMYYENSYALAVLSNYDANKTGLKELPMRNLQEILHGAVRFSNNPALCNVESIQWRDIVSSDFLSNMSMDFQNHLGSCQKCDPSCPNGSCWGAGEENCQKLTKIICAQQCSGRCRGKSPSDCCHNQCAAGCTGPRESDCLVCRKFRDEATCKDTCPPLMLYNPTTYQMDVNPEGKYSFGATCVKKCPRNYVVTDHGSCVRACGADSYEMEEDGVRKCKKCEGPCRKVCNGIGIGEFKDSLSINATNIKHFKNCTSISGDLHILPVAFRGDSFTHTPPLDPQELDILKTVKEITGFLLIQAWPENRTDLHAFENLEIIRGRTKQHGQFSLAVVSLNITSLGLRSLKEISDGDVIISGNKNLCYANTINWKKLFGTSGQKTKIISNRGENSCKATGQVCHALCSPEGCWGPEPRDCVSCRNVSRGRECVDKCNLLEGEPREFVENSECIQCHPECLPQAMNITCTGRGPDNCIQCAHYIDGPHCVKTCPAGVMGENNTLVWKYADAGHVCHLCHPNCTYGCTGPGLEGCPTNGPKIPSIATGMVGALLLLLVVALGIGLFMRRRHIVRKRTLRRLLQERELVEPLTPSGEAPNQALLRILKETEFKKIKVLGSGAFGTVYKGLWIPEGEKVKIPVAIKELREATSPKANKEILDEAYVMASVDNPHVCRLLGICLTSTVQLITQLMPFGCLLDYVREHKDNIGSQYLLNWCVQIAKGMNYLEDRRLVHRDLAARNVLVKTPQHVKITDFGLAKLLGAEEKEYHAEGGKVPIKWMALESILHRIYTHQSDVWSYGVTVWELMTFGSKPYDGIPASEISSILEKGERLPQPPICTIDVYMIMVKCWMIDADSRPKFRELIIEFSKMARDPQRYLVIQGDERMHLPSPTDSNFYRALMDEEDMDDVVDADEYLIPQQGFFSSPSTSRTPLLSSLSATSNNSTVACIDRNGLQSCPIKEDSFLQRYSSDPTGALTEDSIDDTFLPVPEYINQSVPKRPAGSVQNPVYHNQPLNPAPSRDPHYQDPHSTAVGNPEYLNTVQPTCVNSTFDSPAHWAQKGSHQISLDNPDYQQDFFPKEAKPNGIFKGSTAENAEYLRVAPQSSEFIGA
Procedure: as §1

FGFR1 = molecular target: T3, FGFR1 (Homo sapiens, UniProt P11362); experiment: KdELECT binding constant
T3 construct: purchased Eurofins DiscoverX Corporation
T3 sequence (P11362 22-822): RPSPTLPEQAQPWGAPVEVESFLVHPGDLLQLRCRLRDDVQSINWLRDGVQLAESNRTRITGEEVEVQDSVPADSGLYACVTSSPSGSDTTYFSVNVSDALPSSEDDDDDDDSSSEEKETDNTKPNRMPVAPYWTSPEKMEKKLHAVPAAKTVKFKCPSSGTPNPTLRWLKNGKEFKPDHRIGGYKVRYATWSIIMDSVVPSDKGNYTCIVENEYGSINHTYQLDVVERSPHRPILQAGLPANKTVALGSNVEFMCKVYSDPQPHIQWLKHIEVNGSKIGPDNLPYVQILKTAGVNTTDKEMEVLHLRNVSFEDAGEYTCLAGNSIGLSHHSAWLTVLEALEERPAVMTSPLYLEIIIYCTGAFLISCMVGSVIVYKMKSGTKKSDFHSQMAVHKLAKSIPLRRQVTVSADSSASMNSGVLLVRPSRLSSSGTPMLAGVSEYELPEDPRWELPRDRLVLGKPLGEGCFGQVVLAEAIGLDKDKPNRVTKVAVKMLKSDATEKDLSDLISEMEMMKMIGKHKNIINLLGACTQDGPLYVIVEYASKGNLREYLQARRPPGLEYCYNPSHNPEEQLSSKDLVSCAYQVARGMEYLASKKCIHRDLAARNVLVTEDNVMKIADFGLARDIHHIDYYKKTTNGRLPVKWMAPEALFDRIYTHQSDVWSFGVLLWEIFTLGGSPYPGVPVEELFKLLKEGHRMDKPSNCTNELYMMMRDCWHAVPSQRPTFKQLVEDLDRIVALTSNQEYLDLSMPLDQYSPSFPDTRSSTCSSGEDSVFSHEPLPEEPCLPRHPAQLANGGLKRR
Procedure: as §1

FGFR2 = molecular target: T4, FGFR2 (Homo sapiens, UniProt P21802); experiment: KdELECT binding constant
T4 construct: purchased Eurofins DiscoverX Corporation
T4 sequence (P21802 22-821): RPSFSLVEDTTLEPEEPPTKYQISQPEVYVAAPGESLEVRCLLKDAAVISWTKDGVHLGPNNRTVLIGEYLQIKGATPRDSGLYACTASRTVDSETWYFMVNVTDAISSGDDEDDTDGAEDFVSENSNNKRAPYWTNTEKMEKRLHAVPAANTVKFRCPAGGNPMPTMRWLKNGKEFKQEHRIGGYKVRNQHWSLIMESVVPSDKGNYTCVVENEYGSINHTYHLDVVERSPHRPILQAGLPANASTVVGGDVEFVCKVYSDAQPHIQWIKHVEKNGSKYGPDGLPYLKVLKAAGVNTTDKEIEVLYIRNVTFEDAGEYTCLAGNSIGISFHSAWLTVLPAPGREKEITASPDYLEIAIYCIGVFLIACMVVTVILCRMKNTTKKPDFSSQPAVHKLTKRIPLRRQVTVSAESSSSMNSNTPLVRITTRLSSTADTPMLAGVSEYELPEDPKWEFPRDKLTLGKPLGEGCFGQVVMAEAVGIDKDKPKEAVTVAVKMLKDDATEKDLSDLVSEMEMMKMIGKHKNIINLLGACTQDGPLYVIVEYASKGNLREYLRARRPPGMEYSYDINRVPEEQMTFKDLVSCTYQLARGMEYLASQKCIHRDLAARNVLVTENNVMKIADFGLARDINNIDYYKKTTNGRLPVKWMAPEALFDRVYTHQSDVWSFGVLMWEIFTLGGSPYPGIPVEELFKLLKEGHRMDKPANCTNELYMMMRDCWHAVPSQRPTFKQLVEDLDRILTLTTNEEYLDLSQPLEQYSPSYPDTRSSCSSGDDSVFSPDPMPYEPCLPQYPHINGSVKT
Procedure: as §1

[2] = tested on: HepG2-Luc orthotopic liver tumor; experiment: Orthotopic HCC mouse model (HepG2-Luc bioluminescence); type: in vivo; conditions: 82 mg/kg oral once every other day
Procedure: The orthotopic HCC mouse model was established by placing a small piece of tumor-derived HepG2-Luc cells. Mice were randomly distributed into 3 groups upon bioluminescence signal reaching 10^7. The first group served as the saline control. The second and third groups were orally administered MBP-11901 (82 mg/kg) and Nexavar® (164 mg/kg) once every other day for 4 weeks. Tumor progression/regression was recorded once weekly by quantifying the bioluminescence signals. Experimental animals were sacrificed by CO2 inhalation.

HepG2 cells [3] = experiment: Colony formation assay; type: cell-based, human
Procedure: HepG2 cells were seeded in a 6-well plate at a density of 2 × 10^4 cells/well and incubated for 24 h. Cells were treated with MBP-11901 and sorafenib for 2 h and media was changed with fresh one. Cells were incubated for 8 d and the medium was replaced once every 2–3 d. The medium was carefully removed, cells were washed with PBS, and fixed with 100% methanol for 30 min. After removing methanol, cells were stained with 0.5% (w/v) crystal violet for 30 min, and washed with tap water. The plate was dried at 25 °C and images were captured under a microscope (Nikon Eclipse Ts2, Tokyo, Japan). The stained area was automatically measured using ImageJ. This experiment was independently performed 3 times. The area of the colony was calculated as a percentage of the total area of the well.

HepG2 cells [4] = experiment: Transwell migration and invasion assay; type: cell-based, human; conditions: HepG2, dose-dependent
Procedure: For the migration assay, HepG2 cells were seeded into the upper Transwell chamber at a density of 2 × 10^4 cells and incubated for 24 h. For the invasion assay, 100 μL of Matrigel: serum-free media (1:4) mixture was placed on the filter membrane in the upper chamber and incubated (37 °C, 4 h) to seed cells. Cells were exposed to MBP-11901 and sorafenib for 2 h. Then, the medium in the upper chamber was changed to serum-free medium, whereas the medium in the lower chamber was changed to a medium containing 10% FBS. The medium was replaced once every 2–3 d. Following 6 d incubation, the upper surfaces of the filters were scraped 5 times with cotton swabs to remove nonmigrated cells, whereas cells crossing the membrane into the lower chamber were stained with 1% (w/v) crystal violet for 30 min. Crystal violet was removed and cells were washed with tap water. For the migration assay, after drying at 25 °C, 10% acetic acid solution was added to cells, and left to react in a shaker for 30 min. Absorbance was measured at 590 nm using a microplate reader (SpectraMax i3, Molecular Devices). For the invasion assay, the number of migrated cells was counted.

With `NCC(N)C(=O)Nc1ccc(-c2nc3ccccc3s2)cc1` (centres unmarked) [MBP-11901] the “animals in which tumors had completely disappeared” value (Hep3B xenograft tumor) was 1 out of 6, the average tumor volume (Hep3B xenograft tumor; start about 300 mm^3, saline approx. 1400 mm^3) was “approximately 100 mm^3” and the bioavailability [1] was “significantly high”. For the same compound, the half-life [1] was “long”, the Kd (KIT) was 3.85 ± 1.15 µM and the Kd (EGFR) was over 30 µM. For the same compound, the Kd (FGFR1) was over 30 µM, the Kd (FGFR2) was over 30 µM and the “level of GPT” value ([2]; 4 weeks) was “within the normal range”. The “Ratio of average luminescence intensity to that of the saline group before administration” value (“Ratio of average luminescence intensity” below) ([2]; 0 w (immediately before administration)) was 0.77 ± 0.8 fold, the “Ratio of average luminescence intensity” value ([2]; 1 w) was 2.24 ± 2.9 fold and the “Ratio of average luminescence intensity” value ([2]; 2 w) was 0.83 ± 1.8 fold. The “Ratio of average luminescence intensity” value ([2]; 3 w) was 0.03 ± 0.1 fold, the “Ratio of average luminescence intensity” value ([2]; 4 w) was 0.02 ± 0.0 fold and the colony formation (HepG2 cells [3]; HepG2, 5 μM) was “significant reduction”. The colony growth (HepG2 cells [3]; HepG2, high concentrations, compared with sorafenib) was “almost no colony growth was observed” and the “migration and invasion of tumor cells” value (HepG2 cells [4]) was “highly inhibited”.
